Results: patent US20100159030A1, “METHODS FOR DETECTING AND MODULATING THE SENSITIVITY OF TUMOR CELLS TO ANTI-MITOTIC AGENTS AND FOR MODULATING TURMORGENICITY” (NewSouth Innovations Pty Limited, priority 2007, published 2010)

What was measured:
H460 cells [1] = test: Soft agar colony assay (anchorage-independent cell growth); format: cell-based, Human; settings: vs mock or control siRNA/shRNA cells; 27-mers at 5 nM
Procedure: H460 cells were transfected with βIII-tubulin siRNA or control siRNA for 24 h as described above. Cells from each sample (1,000 cells per dish) were resuspended in 0.33% agar (37° C.) in RPMI containing 20% FCS, and plated onto 0.5% solidified agar/20% FCS/RPMI (37° C., bottom supportive layer) in 35 mm dishes. Triplicate plates were set up for each sample. The plates were placed at 4° C. for 10 min to solidify the top agar and then incubated at 37° C. in 5% CO2 for 12 days. After 12 days of culture, the colonies were counted and photographed using the Zeiss Axiovert S100 inverted microscope, 5× objective and SPOT digital camera (Thornwood, N.Y.).

class III β-tubulin = test: Knockdown of class III β-tubulin expression (western blot, RT-PCR); format: cell-based, Human; settings: H460, subculturing time course
Procedure: The effects of βIII-tubulin siRNA transfection on the gene and protein expression of the isotype, were assessed by RT-PCR and western blotting. For RT-PCR, total RNA was extracted from the transfected cells using the Trizol® reagent (Invitrogen), according to the manufacturer's instructions. RNA samples were DNAse-treated, reverse transcribed for RT-PCR analysis using methodology and specific primers as described in detail previously (Kavallaris et al. (1997) J Clin Invest 100, 1282-1293). B eta-2-micro globulin (β2M) was used as an internal mRNA control. Preparation of protein lysates and Western blot analysis were performed as follows. […] Primary antibodies were detected using horseradish peroxidase-linked secondary antibody (Amersham Pharmacia Biotech, Uppsala, Sweden) and enhanced chemiluminescence (GE Healthcare, Uppsala, Sweden) was used for detection. The blots were scanned using the Typhoon® scanner and quantified using ImageQuant® software version 5.2 (Molecular Dynamics Inc, Sunnyvale, Calif.). […]

[2] = tested on: H460 cells stably expressing control or class III β-tubulin shRNA in subcutaneous tumors; test: Nude mouse xenograft, cisplatin (CDDP) treatment of tumors from H460 shRNA clones; format: in vivo, BALB/c athymic nude mice; settings: 3 doses CDDP 3.33 mg/kg over 3 days
Procedure: FIG. 22 is a column chart illustrating the mean number of days for tumor to reach 1000 mm^3 post-treatment with cisplatin (CDDP) or phosphate buffered saline control (PBS) in a nude mouse xenograft animal model. Graphs illustrate results for control shRNA clones 1 and 2 with and without CDDP treatment and βIII-tubulin shRNA clones 4 and 59 with and without CDDP treatment. Once tumors reached approx 300 mm3 mice were treated with 3 doses of CDDP 3.33 mg/kg over 3 days or its vehicle control (PBS). Tumors were then measured twice weekly and mice were sacrificed once tumors reached 1000 mm^3 (n=5 mice per treatment group). Mean number of days were: Control clone 1 (PBS) 15.6 days±4.95; Control clone 1 (CDDP) 13 days±4.21; Control clone 2 (PBS) 7.2 days±1.5; Control clone 2 (CDDP) 10.8 days±3.54; class III 3-tubulin shRNA clone 4 (PBS) 15.6 days±3.12; class III β-tubulin shRNA clone 4 (CDDP) 35 days±3.03; class III β-tubulin shRNA clone 59 (PBS) 15.6 days±2.11; class III β-tubulin shRNA clone 59 (CDDP) 29.4 days±3.93.
FIG. 24A is a plot of tumor volume over time in a nude mouse xenograft animal model following treatment with cisplatin (CDDP) or phosphate buffered saline control (PBS). Tumor size was plotted in mm^3 for control clone 2 with or without CDDP post-treatment and class III β-tubulin shRNA clone 4 with and without CDDP post-treatment. Once tumors reached approx 300 mm^3 mice were treated with 3 doses of CDDP (3.33 mg/kg) over 3 days or its vehicle control (PBS). Tumors were then measured twice weekly and mice sacrificed once tumors reached 1000 mm^3 FIG. 24B illustrates Kaplin Meier survival curves for tumors of two different clones with or without class III β-tubulin silencing and following CDDP or PBS vehicle treatment in vivo. Clone 2 was a control clone and clone 4 was class III β-tubulin silenced with shRNA. FIG. 24C is a plot of tumor size over time in a nude mouse xenograft animal model following treatment with cisplatin (CDDP) or phosphate buffered saline control (PBS). […] Tumors were then measured twice weekly and mice sacrificed once tumors reached 1000 mm^3 FIG. 24D illustrates Kaplin Meier survival curves for control clone 2 with and without CDDP post-treatment and for class III β-tubulin shRNA clone 59 with and without CDDP post-treatment. […]
Female BALB/c athymic nude mice (5-6 week old) were maintained under pathogen-free conditions. […] The animals were monitored twice a week from the second week post-injection for tumor formation and health status. Tumor diameter was measured twice per week using a digital caliper throughout the experiment, and tumor volume in mm^3 was calculated using the formula: Volume=(length×width×depth)/2. […]

NSCLC H460 cells = test: Drug-treated clonogenic assay (surviving fraction, ID50) on siRNA/shRNA-transfected cells; format: cell-based, Human; settings: for RS (relative sensitivity): Table 3
Procedure: Cells were transfected for 24 h and approximately 600 cells (for Calu-6) or 150 cells (for H460) were seeded into each well of a 6-well plate and allowed to attach for 4-6 h. The cell lines used in this study were not subject to prior drug selection, and are likely to represent intrinsic drug resistance observed in lung carcinoma.
Cells were then treated with increasing concentrations of various anti-mitotic drugs. Following a 3-day incubation at 37° C., the drug-containing medium was removed and replaced with fresh complete medium. Medium was changed at 3-4 day intervals for 7 to 10 days until visible colonies formed. […] Surviving colonies were simultaneously fixed and stained with 0.5% crystal violet in methanol, rinsed with water to remove excess stain and air-dried overnight.
The colonies in each well were manually counted, and the results were presented as surviving fraction according to the formula: surviving fraction was calculated as follows: colony number/(number of cells seeded×plating efficiency), where plating efficiency is equivalent to the colony number divided by the number of cells seeded in the drug-free medium. Dose-response curves were plotted for each drug-cell line combination and inhibitory dose (ID50) values were extrapolated from this curve using GraphPad Prism program (GraphPad Software, version 4, San Diego, Calif.). ID50 was defined as the concentration of the drug required to reduce the number of colonies in drug-treated wells to 50% of that of the relevant untreated control wells. The ID50 values were the means of at least four independent experiments.
To quantitate any change in drug sensitivity, drug treated clonogenic assays were performed. Twenty-four hours after siRNA transfection, cells were harvested and plated into 6-well plates for 6 h, prior to the addition of various drugs as indicated in the figure legends. After 72 h incubation, the drug-containing media was removed and replaced with complete growth media. Medium was changed every 3 days for 7 to 10 days until visible colonies formed. Colonies were simultaneously fixed and stained with 0.5% crystal violet in methanol, and manually counted. Individual stained colonies in each well were counted and the surviving fraction was calculated as follows: colony number/(number of cells seeded×plating efficiency), where plating efficiency equals the colony number divided by the number of cells seeded in drug-free media.

H460 cells [3] = test: Apoptosis induction, Annexin V-FITC flow cytometry; format: cell-based, Human; settings: βIII-tubulin siRNA vs control siRNA cells, 48 h; paclitaxel 1, 2, 5 nM; cisplatin 0.4 or 1 μM
Procedure: Annexin V-FITC staining followed by flow cytometry analysis was performed to address whether the increase in the sub-G1 population following exposure to tubulin-binding agents in the βIII-tubulin siRNA treated cells was related to an increase in apoptosis induction. Apoptosis induction was determined by transfecting H460 cells with siRNA for 72 h and harvesting (adherent and suspension) cells 48 h after drug treatment, as previously described in Pasquier et al., Mol Cancer Ther 2004; 3:1301-10. Briefly, 1×10^5 cells were incubated with Annexin V-FITC and propidium iodide for 15 min in the dark (Becton-Dickinson), immediately followed by flow cytometry using a FACSCalibur (Becton-Dickinson). Cytogram analysis was performed using CellQuest® software.

| Molecule | number of colonies in soft agar (H460 cells [1]) | duration of class III β-tubulin protein knockdown (class III β-tubulin) [days] | mean number of days for tumor to reach 1000 mm^3 post-treatment ([2]; Control clone 1) [days] | mean number of days for tumor to reach 1000 mm^3 post-treatment ([2]; Control clone 2) [days] | mean number of days for tumor to reach 1000 mm^3 post-treatment ([2]; class III β-tubulin shRNA clone 4) [days] | mean number of days for tumor to reach 1000 mm^3 post-treatment ([2]; class III β-tubulin shRNA clone 59) [days] | RS (relative sensitivity) (NSCLC H460 cells; Ctrl clone 2 compared to ctrl clone 1) | RS (relative sensitivity) (NSCLC H460 cells; βIII shRNA clone 4 compared to ctrl clone 1) | RS (relative sensitivity) (NSCLC H460 cells; βIII shRNA clone 59 compared to ctrl clone 1) | RS (relative sensitivity) (NSCLC H460 cells; βIII shRNA clone 60 compared to ctrl clone 1) | change in drug sensitivity (clonogenic survival) (NSCLC H460 cells; βIII-tubulin siRNA silencing vs controls, H460) | percentage of apoptotic cells (H460 cells [3]) |
| --- | --- | --- | --- | --- | --- | --- | --- | --- | --- | --- | --- | --- |
| 27-mer βIII siRNA Sequence-8: 27-mer siRNA to class III β-tubulin, SEQ ID NO: 11 and 12, position 1521-1545 (chain 1 AGACAGAGACAGGAGCAGCUCACACGU; chain 2 GUGUGAGCUGCUCCUGUCUCUGUCT; chemistry not given here) | significantly less colonies |  |  |  |  |  |  |  |  |  |  |  |
| 27-mer βIII siRNA Sequence-11: 27-mer siRNA to class III β-tubulin, SEQ ID NO: 13 and 14, position 1352-1376 (chain 1 UCUCACUCCAGCUGCGAGCAGCUUCAC; chain 2 GAAGCUGCUCGCAGCUGGAGUGAGA; listed as RNA, chemistry not given here) | significantly less colonies | 6 |  |  |  |  |  |  |  |  |  |  |
| [NH2][Pt]([NH2])([Cl])[Cl] [CDDP, cisplatin] |  |  | 13 | 10.8 | 35 | 29.4 | (1.06, NS) | (2.42, 0.0002***) | (1.86, 0.001**) | (1.72, 0.0019**) | increased sensitivity | significant increase in the number of apoptotic cells |
